Laboratory results as given in patent publication US9334267B2, “RAF inhibitor compounds” (Deciphera Pharmaceuticals, LLC, priority 2012, dated 2016).

Columns and labels:
[1] = tested on: phospho-ERK in HCT-116 cells; test: HCT-116 cell pERK assay (AlphaScreen SureFire); type: cell-based; conditions: Homo sapiens, B-Raf wild type, K-Ras mutation, 4 hours, range over the listed examples, read-out: phospho-ERK signal IC50
Method: Examples of Formula I are tested against HCT-116 cells harboring wild type B-Raf and K-Ras mutation. The phospho-ERK activities are evaluated as described below.
HCT-116 cells (catalog #CCL-247) are obtained from the American Type Culture Collection (ATCC, Manassas, Va.). Briefly, cells are grown in McCoy's 5A supplemented with 10% characterized fetal bovine serum (Invitrogen, Carlsbad, Calif.), and 1% Penicillin/Streptomycin/L-Glutamine at 37 degrees Celsius, 5% CO2, and 95% humidity. Cells are allowed to expand until reaching 75-90% confluency at which point they are subcultured or harvested for assay use. HCT-116 cells suspended in complete media are added to 384-well tissue culture treated plates (3×10^5 cells/mL; 7,500 cells per well). The cells are incubated overnight at 37 degrees Celsius, 5% CO2, and 95% humidity. Next, test compound or DMSO diluted in complete media is added to the wells (0.25% final DMSO concentration). The plates are then incubated for 4 hours at 37 degrees Celsius, 5% CO2, and 95% humidity. Following compound incubation, the cells are lysed at 4° C. for 20 minutes with shaking. Cell lysates are centrifuged and the supernatant is transferred to a new plate. An aliquot of each lysate is transferred to a white 384-well assay plate. Using the AlphaScreen SureFire pERK kit (Perkin-Elmer, Waltham, Mass.), an acceptor bead mixture is added to each well and incubated for 2 h at room temperature in the dark. A donor bead mixture is then added to each well and incubated for 2 h at room temperature in the dark. Plates are read using a Synergy2 plate reader (Biotek, Winooski, Vt.) in Plate Mode with Timing Control. Read: (F)1: excitation: 680/30 nm, emission: Plug. 2: Excitation: Plug, emission: 570/100 nm. Top mirror 635 nm. Data is analyzed using Prism software (Graphpad, San Diego, Calif.) to calculate IC50 values and Excel software (Microsoft, Redmond, Wash.) to calculate stimulation compared to control.

[2] = tested on: phospho-ERK in A375 (BRAF V600E) xenograft; test: A375 mouse xenograft pharmacodynamic assay (tumor phospho-ERK by ELISA); type: in vivo; conditions: A375 xenografts in nude female mice, 20 mg/kg oral (gavage), vs vehicle
Method: To evaluate the in vivo pharmacodynamic (PD) effects of compounds of Formula I, an A375 (BRAF V600E) xenograft model is employed. Briefly, 10×10^6 A375 tumor cells (ATCC) are prepared in a 1:1 matrigel mix (0.2 mL total volume) and implanted by subcutaneous injection in hind leg of nude female mice. A total of 4 mice each for each dosing group are employed. Treatment is initiated with oral administration (gavage) of test compound or vehicle (20% captisol, 25 mM phosphate, pH2.0) in 0.2 mL volume when average tumor size reaches approximately 300 mg. After a fixed time interval, the tumors are harvested and the phospho-ERK levels are measured by ELISA (Enzyme-linked immunosorbent assay). Treated groups are compared to the vehicle control group to calculate % inhibition.

[3] = tested on: A375 V600E xenograft tumor; test: A375 rat xenograft efficacy model; type: in vivo, rats; conditions: orally twice a day at 10 and 20 mg/kg for 21 days
Method: To further evaluate in vivo activity of compounds of Formula I, A375 V600E (ATCC) and HCT-116 K—Ras mutant B-Raf wild type (ATCC) xenograft tumor models are used. Briefly, 10×10^6 cells (A375) or 5×10^6 cells (HCT-116) in a 1:1 medium and matrigel mix (0.2 mL total volume) are implanted by subcutaneous injection in the hind leg of nude female rats (NIH model No. NIHRNU-M from Taconic). A total of 8 rats in each group are used for the efficacy study, and a total of 3-4 rats in each group are used for a pharmacodynamic study. Treatment is initiated with oral administration (gavage) of test compound or vehicle (20% Captisol®, 25 mM phosphate, pH 2.0) in 0.6 mL volume when tumor size reaches approximately 500 mg. Test compound is orally dosed twice a day for 21 days. Tumor growth and body weight are monitored over time to evaluate activity and signs of toxicity. Bidimensional measurements of tumors are performed twice a week and tumor volumes are calculated based on mid-axis length and mid-axis width. Tumor volume data are transformed to a log scale to equalize variance across time and treatment groups. The log volume data are analyzed with a two-way repeated measures analysis of variance by time and treatment using the MIXED® procedures in SAS® software (version 8.2). The correlation model for the repeated measures is spatial power. […]

Compound	IC50 shift A375 to A375res (A375res cells)	Measured pERK inhibition 2 h post dose [2] [% inhibition]	other results
Cc1cc(F)c(NC(=O)NCCC(C)(C)C)cc1-c1cc2cnc(NCCN(C)C)nc2nc1C [Example 17, 1-[5-[2-(2-Dimethylaminoethylamino)-7-methyl-pyrido[2,3-d]pyrimidin-6-yl]-2-fluoro-4-methyl-phenyl]-3-(3,3-dimethylbutyl)urea]	0.6-1.9 fold		
Cc1cc(F)c(NC(=O)NCCC(C)(C)C)cc1-c1cc2cnc(N)nc2nc1C [Example 20, 1-(5-(2-Amino-7-methylpyrido[2,3-d]pyrimidin-6-yl)-2-fluoro-4-methylphenyl)-3-(3,3-dimethylbutyl)urea]	0.6-1.9 fold		
Cc1cc(F)c(NC(=O)NCCC(C)(C)C)cc1-c1cc2cnc(NCCO)nc2nc1C [Example 16, 1-(3,3-Dimethylbutyl)-3-[2-fluoro-5-[2-(2-hydroxyethylamino)-7-methyl-pyrido[2,3-d]pyrimidin-6-yl]-4-methyl-phenyl]urea]	0.6-1.9 fold		
CNc1ncc2cc(-c3cc(NC(=O)NCCC(C)(C)C)c(F)cc3C)cnc2n1 [Example 35, 1-(3,3-Dimethylbutyl)-3-[2-fluoro-4-methyl-5-(2-methylaminopyrido[2,3-d]pyrimidin-6-yl)phenyl]urea]	0.6-1.9 fold	79	IC50 [1]: 2 to 472 nM
CNc1ncc2cc(-c3cc(NC(=O)NCCC(C)(C)F)c(F)cc3C)cnc2n1 [Example 34, 1-(3-Fluoro-3-methyl-butyl)-3-[2-fluoro-4-methyl-5-(2-methylaminopyrido[2,3-d]pyrimidin-6-yl)phenyl]urea]	0.6-1.9 fold	72	
CNc1ncc2cc(-c3cc(NC(=O)NCCC(C)(C)C(F)(F)F)c(F)cc3C)c(C)nc2n1 [Example 27, 1-(2-Fluoro-4-methyl-5-(7-methyl-2-(methylamino)pyrido[2,3-d]pyrimidin-6-yl)phenyl)-3-(4,4,4-trifluoro-3,3-dimethylbutyl)urea]	0.6-1.9 fold		
CNc1ncc2cc(-c3cc(NC(=O)NCCC4(C(F)(F)F)CC4)c(F)cc3C)c(C)nc2n1 [Example 30, 1-(2-Fluoro-4-methyl-5-(7-methyl-2-(methylamino)pyrido[2,3-d]pyrimidin-6-yl)phenyl)-3-(2-(1-(trifluoromethyl)cyclopropyl)ethyl)urea]	0.6-1.9 fold		
CCNc1ncc2cc(-c3cc(NC(=O)NCCC(C)(C)F)c(F)cc3C)c(C)nc2n1 [Example 26, 1-(5-(2-(Ethylamino)-7-methylpyrido[2,3-d]pyrimidin-6-yl)-2-fluoro-4-methylphenyl)-3-(3-fluoro-3-methylbutyl)urea]	0.6-1.9 fold		
CNc1ncc2cc(-c3cc(NC(=O)NCCC4(C)CC4)c(F)cc3C)c(C)nc2n1 [Example 24, 1-(2-Fluoro-4-methyl-5-(7-methyl-2-(methylamino)pyrido[2,3-d]pyrimidin-6-yl)phenyl)-3-(2-(1-methylcyclopropyl)ethyl)urea]	0.6-1.9 fold	88	tumor growth ([3]; both dosing groups): tumor growth inhibition and tumor growth regression; animal body weight ([3]; either group): no animal body weight loss; IC50 [1]: 2 to 472 nM
Cc1cc(F)c(NC(=O)NCCC(C)(C)C)cc1-c1cc2cnc(NCCN3CCOCC3)nc2nc1C [Example 21, 1-(3,3-Dimethylbutyl)-3-(2-fluoro-4-methyl-5-(7-methyl-2-((2-morpholinoethyl)amino)pyrido[2,3-d]pyrimidin-6-yl)phenyl)ure]	0.6-1.9 fold		
Cc1cc(F)c(NC(=O)NCCC(C)(C)F)cc1-c1cc2cnc(N)nc2nc1C [Example 28, 1-(5-(2-Amino-7-methylpyrido[2,3-d]pyrimidin-6-yl)-2-fluoro-4-methylphenyl)-3-(3-fluoro-3-methylbutyl)urea]	0.6-1.9 fold		
COCCNc1ncc2cc(-c3cc(NC(=O)NCCC(C)(C)C)c(F)cc3C)c(C)nc2n1 [Example 5, 1-(3,3-Dimethylbutyl)-3-(2-fluoro-5-(2-((2-methoxyethyl)amino)-7-methylpyrido[2,3-d]pyrimidin-6-yl)-4-methylphenyl)urea]		77	
CNc1ncc2cc(-c3cc(NC(=O)NCCC(C)(C)F)c(F)cc3C)c(C)nc2n1 [Example 4, 1-(3-Fluoro-3-methylbutyl)-3-(2-fluoro-4-methyl-5-(7-methyl-2-(methylamino)pyrido[2,3-d]pyrimidin-6-yl)phenyl)urea]	0.6-1.9 fold	84	
Cc1cc(F)c(NC(=O)NCCC(C)(C)F)cc1-c1cc2cnc(NC3COC3)nc2nc1C [Example 25, 1-(3-Fluoro-3-methylbutyl)-3-(2-fluoro-4-methyl-5-(7-methyl-2-(oxetan-3-ylamino)pyrido[2,3-d]pyrimidin-6-yl)phenyl)urea]	0.6-1.9 fold		IC50 [1]: 2 to 472 nM
CNc1ncc2cc(-c3cc(NC(=O)NCC(O)C(C)(C)C)c(F)cc3C)c(C)nc2n1 (centres unmarked) [Example 15, 1-[2-Fluoro-4-methyl-5-(7-methyl-2-methylamino-pyrido[2,3-d]pyrimidin-6-yl)phenyl]-3-(2-hydroxy-3,3-dimethyl-butyl)urea]	0.6-1.9 fold		
CNc1ncc2cc(-c3ccc(F)c(NC(=O)NCCC(C)(C)C)c3)c(C)nc2n1 [Example 2, 1-(3,3-Dimethylbutyl)-3-(2-fluoro-5-(7-methyl-2-(methylamino)pyrido[2,3-d]pyrimidin-6-yl)phenyl)urea]		38	
CNc1ncc2cc(-c3cc(NC(=O)NCCC(C)(C)C)c(F)cc3F)c(C)nc2n1 [Example 1, 1-(2,4-Difluoro-5-(7-methyl-2-(methylamino)pyrido[2,3-d]pyrimidin-6-yl)phenyl)-3-(3,3-dimethylbutyl)urea]		54	
